Source: patent US20240246956A1, “CLASS IIA HISTONE DEACETYLASE (HDAC) DEGRADER LIGANDS AND METHODS OF USE THEREOF” (DANA-FARBER CANCER INSTITUTE, INC., priority 2021, published 2024)

Biological target: T1, HDAC7 (Homo sapiens, UniProt Q8WUI4)
T1 sequence (Q8WUI4 1-952): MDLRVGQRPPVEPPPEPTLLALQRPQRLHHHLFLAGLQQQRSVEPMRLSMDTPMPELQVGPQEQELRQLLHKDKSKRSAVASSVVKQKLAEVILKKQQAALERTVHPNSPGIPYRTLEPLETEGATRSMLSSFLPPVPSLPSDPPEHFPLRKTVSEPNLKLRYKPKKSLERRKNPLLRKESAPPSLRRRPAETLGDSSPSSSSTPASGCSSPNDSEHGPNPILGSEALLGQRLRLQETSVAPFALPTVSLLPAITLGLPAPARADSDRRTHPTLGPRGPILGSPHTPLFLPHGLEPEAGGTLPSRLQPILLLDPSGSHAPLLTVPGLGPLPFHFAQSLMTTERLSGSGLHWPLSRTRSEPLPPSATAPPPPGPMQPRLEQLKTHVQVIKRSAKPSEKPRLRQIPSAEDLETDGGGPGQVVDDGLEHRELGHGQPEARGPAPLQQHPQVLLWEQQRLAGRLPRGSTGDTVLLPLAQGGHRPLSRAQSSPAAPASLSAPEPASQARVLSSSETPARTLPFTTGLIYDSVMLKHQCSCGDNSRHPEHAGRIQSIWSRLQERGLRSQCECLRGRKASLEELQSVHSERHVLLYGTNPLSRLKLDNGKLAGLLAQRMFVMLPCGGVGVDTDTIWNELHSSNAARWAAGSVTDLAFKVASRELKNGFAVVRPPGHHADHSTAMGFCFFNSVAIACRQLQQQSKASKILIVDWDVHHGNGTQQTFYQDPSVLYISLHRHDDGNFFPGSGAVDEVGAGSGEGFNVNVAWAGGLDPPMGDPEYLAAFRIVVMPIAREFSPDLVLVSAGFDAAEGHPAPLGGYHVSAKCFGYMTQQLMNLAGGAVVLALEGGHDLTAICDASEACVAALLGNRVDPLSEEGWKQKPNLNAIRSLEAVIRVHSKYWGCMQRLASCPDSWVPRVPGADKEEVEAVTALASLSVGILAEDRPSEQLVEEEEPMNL
Experiment: Global quantitative proteomics, change in protein abundance in Kelly cells
Format: cell-based
Set-up: endogenous in cells; host or cells: Kelly cells
Conditions: 1 μM, 5-hour treatment, vs DMSO, FIG. 3
Experimental: Cells were washed once with phosphate-buffered saline (PBS), harvested with CellstripperTM (Corning®), washed two additional times with PBS and snap frozen in liquid nitrogen. […] Proteins were precipitated using methanol/chloroform in Donovan et al., Elife 7:e38430 (2018). The precipitated protein was resuspended in 4 M Urea, 50 mM HEPES pH 7.4, followed by dilution to 1 M urea with the addition of 200 mM EPPS, pH 8. Proteins were first digested with LysC (1:50: enzyme:protein) for 12 hours at room temperature. The LysC digestion was diluted to 0.5 M Urea with 200 mM EPPS pH 8 followed by digestion with trypsin (1:50: enzyme:protein) for 6 hours at 37° C. Tandem mass tag (TMT) reagents (Thermo Fisher Scientific) were dissolved in anhydrous acetonitrile (ACN) according to manufacturer's instructions. Anhydrous ACN was added to each peptide sample to a final concentration of 30% v/v, and labeling was induced with the addition of TMT reagent to each sample at a ratio of 1:4 peptide:TMT label. The 11-plex labeling reactions were performed for 1.5 hours at room temperature and the reaction quenched by the addition of hydroxylamine to a final concentration of 0.3% for 15 minutes at room temperature. The sample channels were combined at a 1:1 ratio, desalted using C18 solid phase extraction cartridges (Waters®) and analyzed by LC-MS for channel ratio comparison. Samples were then combined using the adjusted volumes determined in the channel ratio analysis and dried down in a speed vacuum. The combined sample was then resuspended in 1% formic acid, and acidified (pH 2-3) before being subjected to desalting with C18 SPE (Sep-Pak®-, Waters®). […] The 96 resulting fractions were then pooled in a non-contiguous manner into 24 fractions and these fractions were used for subsequent mass spectrometry analysis. Data were collected using an Orbitrap FusionTM LumosTM mass spectrometer (Thermo Fisher Scientific, San Jose, CA, USA) coupled with a […] pump (Thermo Fisher Scientific). Peptides were separated on an EasySprayTM ES803.rev2 75 μm inner diameter microcapillary column (ThermoFisher Scientific). Peptides were separated using a 190 min gradient of 6-27% acetonitrile in 1.0% formic acid with a flow rate of 300 nL/min. Each analysis used an MS3-based TMT method as described in McAlister et al., Anal. Chem. 86(14):7150-7158 (2014). The data were acquired using a mass range of m/z 340-1350, resolution 120,000, automatic gain control (AGC) target 1×10^6, maximum injection time 100 ms, dynamic exclusion of 120 seconds for the peptide measurements in the Orbitrap FusionTM LumosTM mass spectrometer. Data dependent MS2 spectra were acquired in the ion trap with a normalized collision energy (NCE) set at 55%, AGC target set to 1.5×10^5 and a maximum injection time of 150 ms. MS3 scans were acquired in the Orbitrap FusionTM LumosTM mass spectrometer with a higher energy collision dissociation (HCD) set to 55%, AGC target set to 1.5×10^5, maximum injection time of 150 ms, resolution at 50,000 and with a maximum synchronous precursor selection (SPS) precursors set to 10. Proteome Discoverer 2.2 (Thermo Fisher Scientific) was used for .RAW file processing and controlling peptide and protein level false discovery rates, assembling proteins from peptides, and protein quantification from peptides. MS/MS spectra were searched against a Swissprot human database (December 2016) with both the forward and reverse sequences. […] TMT reporter ion intensities were measured using a 0.003 Da window around the theoretical m/z for each reporter ion in the MS3 scan. […] Reporter ion intensities were normalized and scaled using in-house scripts in the R framework. Statistical analysis was carried out using the limma package within the R framework as described in Ritchie et al., Nucleic Acids Res. 43(7):e47 (2015).

SMILES | protein expression level of HDAC7
CCN(CCNc1cccc2c1C(=O)N(C1CCC(=O)NC1=O)C2=O)C[C@@H](C)NC(=O)c1ccc(-c2noc(C(F)(F)F)n2)cc1 (stereo partly drawn) [Compound 16, N-((2R)-1-((2-((2-(2,6-dioxopiperidin-3-yl)-1,3-dioxoisoindolin-4-yl)amino)ethyl)(ethyl)amino)propan-2-yl)-4-(5-(trifluoromethyl)-1,2,4-oxadiazol-3-yl)benzamide] | reduction in protein expression level
O=C1CCC(N2C(=O)c3cccc(NCCCCCCN4CCC(CNC(=O)c5cccc(-c6noc(C(F)(F)F)n6)c5)(c5nc(-c6ccccc6)cs5)CC4)c3C2=O)C(=O)N1 (centres unmarked) [Compound 1] | selective reduction in protein expression level
